Consider 1 molecule from article PMC4539048 (Science translational medicine, 2015).

Broadly, the EC50 is the midpoint of the concentration-response curve. What is called inhibition is the change of the read-out against control, counted positive when it falls.

Values after ≈ are worked out from the molar mass of the structure shown. Values joined by “and” are separate entries in the source; they are usually repeats but may differ in a detail not shown here. Equal entries are not always repeated. Marks after values point to notes of the source that are not given here. Bounds are passed on as bounds.

One data set has as its system P. falciparum Dd2. In kind it is cell-based. The settings on record: Dd2, 3xEC50.
Data set [1] deals with rabbit cardiac ventricular wedge. Put plainly: Rabbit cardiac ventricular wedge assay.
The nature of data set [2]: Protein binding in assay media. In kind it is in vitro ADME. Particulars: 0.5% Albumax II in RPMI-1640.
Data set [3] relates to micronucleated polychromatic erythrocytes. Put plainly: Oral bone marrow micronucleus test. Particulars: male CD1 mice. In kind it is in vivo.
The subject of data set [4] is P. falciparum gametocytes stages IV–V. Put plainly: Gametocyte assay stages IV–V. In kind it is cell-based.
Data set [5] concerns P. cynomolgi liver-stage parasites. Put plainly: P. cynomolgi liver-stage model. The data set is classed as cell-based.
Data set [6] has as its system P. falciparum stage V oocyst. Put plainly: Oocyst formation in mosquitoes.
A further data set deals with P. falciparum 3D7. Put plainly: In vitro killing curves / 48 h growth assay, P. falciparum 3D7 blood stage. In kind it is cell-based.
Data set [7] concerns the target panel of 106 human receptors and ion channels. Put plainly: Cerep panel of 106 human receptors and ion channels. In kind it is binding.
Data set [8] is described as follows: Stability in hepatic microsomes and cryopreserved hepatocytes. The settings on record: across species. In kind it is in vitro ADME.

On to `Cc1cc(Nc2ccc(S(F)(F)(F)(F)F)cc2)n2nc(C(C)(F)F)nc2n1` [DSM265, 2-(1,1-difluoroethyl)-5-methyl-[N-[4-(pentafluorosulfanyl)phenyl]1,2,4]triazolo[1,5-a]pyrimidin-7-amine], for which the “MIR, range over two independent studies” value in the data set with P. falciparum Dd2 is recorded as 2×10^5–2×10^7 parasites. Further, in [1] (at 1 or 0.5 Hz), the “QT and Tp-e interval” value is reported as “did not cause any significant prolongation”. Also, the “Torsade de Pointes (TdP)-type arrhythmias” value in [1] (tested up to 5 μg/mL) is reported as “no Torsade de Pointes (TdP)-type arrhythmias were observed”. Also, in data set [2], the “Fraction unbound in assay media” value was 0.17 ^b. Also, the micronucleated polychromatic erythrocytes result in [3] was “no increase”. Further, in data set [4], the “EC50, gametocytes stages IV–V” value is listed as “no activity”. In addition, the 50% effective concentration (EC50) in data set [4] (Plasmodium falciparum, read-out: EC50, gametocytes stages IV–V) is > 16 µg/mL; in [5] (Plasmodium cynomolgi, read-out: EC50, liver-stage large form (multinucleated schizont)), 0.13 µg/mL (≈ 0.313 µM); in the data set with P. falciparum 3D7 (Plasmodium falciparum, 3D7, 48 h, read-out: P. falciparum 3D7 in vitro growth assay EC50), 0.0046 µg/mL (≈ 0.0111 µM). The “activity against small forms (non-dividing hypnozoite)” value in [5] is “poor activity”. Also, in data set [6] (Plasmodium falciparum, read-out: inhibition of oocyst formation), the inhibition at 1 µg/mL was found to be 38%. Also, in [6] (at 0.001 μg/mL unbound (human plasma fraction unbound)), the “inhibition of oocyst formation at unbound concentration” value amounted to 38% at 0.001. Moreover, the “lag-phase prior to parasite killing” value in the data set with P. falciparum 3D7 (at 1xEC50) is 96 h; in the data set with P. falciparum 3D7 (at 3xEC50 and above), 24 to 48 h. The “Unbound in vitro MPC (kill assay)” value in the data set with P. falciparum 3D7 (corrected with fraction unbound in 0.5% Albumax II in RPMI-1640) is 0.002 µg/mL and 0.0020 µg/mL. Besides, the “P. falciparum 3D7 in vitro MPC (kill assay)” value in the data set on P. falciparum 3D7 (minimum parasiticidal concentration = 3xEC50) is 0.014 μg/mL and 0.014 ^a μg/mL. Besides, the “IC50 values for the full panel” value in data set [7] was > 4.2 µg/mL. Also, in data set [8], the “degradation in hepatic microsomes and cryopreserved hepatocytes” value is given as “minimal degradation”.
